Assay results published in patent publication US5656622A, “15,15-dialkyl-substituted derivatives of estradiol” (Schering Aktiengesellschaft, priority 1993, dated 1997).

Key:
[1] = test system: 17β-hydroxysteroid dehydrogenase from human placenta; assay: stability against 17β-hydroxysteroid dehydrogenase, incubation with placenta microsomes; format: in vitro ADME; settings: NADP 0.5 mmol
Protocol: To determine the stability of estradiol (A) itself as well as of a compound according to the invention, i.e., 15,15-dimethyl-estra-1,3,5(10)-triene-3,17β-diol (B), against 17β-hydroxysteroid dehydrogenase from human placenta, the test substances are incubated with placenta microsomes in the presence of NADP (nicotinamide-adenine-dinucleotide phosphate; 0.5 mmol).
The steroids (initial substrate and product) are extracted and separated by HPLC. For evaluation, the quotients are formed from the electronically integrated peak areas of the corresponding reaction product (namely the assumed 17-keto compound) and the initial substance and plotted against the incubation time (FIG. 1).

estrogen receptor = estrogen receptor binding test; settings: tissue from rat uteri, 3H-estradiol as reference substance
Protocol: The estrogenic effectiveness of the compounds according to the invention can be shown by the results of the estrogen receptor binding test. In this known in vitro test, tissue from rat uteri is prepared and radioactively-labeled ^3 H-estradiol is used as reference substance. The compound according to the invention 15,15-dimethyl-estra-1,3,5(10)-triene-3,17β-diol accordingly has a competition factor K of 1.5.

CC1(C)C[C@H](O)[C@@]2(C)CC[C@@H]3c4ccc(O)cc4CC[C@H]3[C@H]12 [15,15-dimethylestra-1,3,5(10)-triene-3,17β-diol]
conversion to the 17-keto compound by 17β-hydroxysteroid dehydrogenase (quotient of HPLC peak areas product/initial substance against incubation time, FIG. 1) [1]: only moderate substrate | competition factor K (estrogen receptor): 1.5
